{"source": "patent US7504508B2", "about": "“PGD2 receptor antagonists for the treatment of inflammatory diseases” (Millennium Pharmaceuticals, Inc., priority 2002, dated 2009)"}
{"target": "T1, cloned human CRTH2 receptor (Homo sapiens, UniProt Q9Y5Y4)", "T1 construct": "purchased Biosignal; host or cells: HEK-293 cells stably expressing human CRTH2 and G-alpha-16 (membranes)", "T1 sequence (Q9Y5Y4 1-395)": "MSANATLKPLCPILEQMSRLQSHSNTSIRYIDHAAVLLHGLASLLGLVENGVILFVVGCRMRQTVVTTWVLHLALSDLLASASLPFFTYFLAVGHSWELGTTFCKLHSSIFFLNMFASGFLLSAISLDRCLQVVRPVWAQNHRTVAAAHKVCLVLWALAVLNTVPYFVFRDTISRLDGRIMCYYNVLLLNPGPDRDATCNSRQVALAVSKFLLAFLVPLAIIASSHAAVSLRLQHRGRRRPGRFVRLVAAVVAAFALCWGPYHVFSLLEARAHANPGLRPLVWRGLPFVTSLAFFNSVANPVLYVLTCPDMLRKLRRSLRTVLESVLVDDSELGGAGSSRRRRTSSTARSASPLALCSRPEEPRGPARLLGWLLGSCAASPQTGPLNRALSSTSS", "test": "Radioligand membrane binding assay: inhibition of [3H] PGD2 binding to CRTH2 (Scintillation Proximity Assay)", "conditions": "inhibition of [3H] PGD2 binding to membranes of HEK-293 cells stably expressing human CRTH2; SPA; 10 point curve from 10 μM; room temperature, approximately 2 hours", "procedure": "This radioligand membrane binding assay evaluates the ability of compounds to inhibit [^3H] Prostaglandin D2 (PGD2) binding to the cloned human CRTH2 receptor stably expressed in HEK-293 cells (expressing human CRTh2 receptor and α subunit or the heteronimeric G protein 16 were prepared by Biosignal Company) using Scintillation Proximity Assay.\nA binding buffer containing 50 mM Tris-HCl (pH 7.5), 5 mM MgCl2 and 1 mM EDTA was prepared immediately prior to performing the assay. A bead/membrane solution at twice the final assay concentration comprising membranes (membranes bought from Biosignal) from the HEK-293 cells cloned to express CRTH2 receptor bound to and [3H] PGD2 at twotimes the final assay concentration were prepared and stored on ice before adding to wells. Cold PGD2 at twenty times the final assay concentration was prepared and stored on ice before adding to wells defining non-specific binding (NSB) corning plates #3653 were used for this assay.\n10 mM stock concentrations of compounds in 100% DMSO were prepared and stored at room temperature. A 10 point concentration response curve was then constructed for each compound, starting at 10 μM (final assay concentration). The compounds were prepared at 40 times final assay concentrations with nine consequent-3-fold dilutions.\n0.1 μl of each concentration of compound were added to the appropriate well of the 384 plate and 2 μl of cold PGD2 was added into the wells defining NSB. 20 μl of [^3H] PGD2 and then 20 μl of 2× of bead/membrane solution were then added to each well.\nThe plates were allowed to incubate at room temperature for approximately 2 hours and then counted on Packard Topcount using SPA tritium protocol for 1 minute/well.\nThe percent inhibition of PGD2 binding (PGD2 used at the KD value or lower) to the HEK-293 cell membranes was determined, the assay was always run as duplicate for n=1 for a total of n=2.", "units": {"Ki": "µM"}}
{"smiles": "CCC(=O)N(c1ccc(C(F)(F)F)cc1)[C@@H]1C[C@H](C)N(C(=O)c2ccc(F)cc2)c2ccccc21", "note": "(racemic) [Compound B-13, (±)-Cis-N-[1-(4-Fluoro-benzoyl)-2-methyl-1,2,3,4-tetrahydro-quinolin-4-yl]-N-(4-trifluoromethyl-phenyl)-propionamide]", "Ki": "< 10"}
{"smiles": "COc1ccc(C(=O)N2c3ccccc3[C@H](N(C(C)=O)c3ccc(CC(=O)O)cc3)C[C@@H]2C)cc1", "note": "(racemic) [Compound B-39, (±)-Cis-(4-{acetyl-[1-(4-methoxy-benzoyl)-2-methyl-1,2,3,4-tetrahydro-quinolin-4-yl]-amino}-phenyl)-acetic acid]", "Ki": "< 10"}
{"smiles": "COc1ccc(C(=O)N2c3ccccc3[C@H](N(C(C)=O)c3cccc(C(=O)O)c3)C[C@@H]2C)cc1", "note": "(racemic) [Compound B-40, (±)-Cis-3-{acetyl-[1-(4-methoxy-benzoyl)-2-methyl-1,2,3,4-tetrahydro-quinolin-4-yl]-amino}-benzoic acid]", "Ki": "< 10"}
{"smiles": "CC(=O)N(c1ccc(Oc2ccccc2)cc1)[C@@H]1C[C@H](C)N(C(=O)c2ccc(F)cc2)c2ccccc21", "note": "(racemic) [Compound B-51, (±)-Cis-N-[1-(4-fluoro-benzoyl)-2-methyl-1,2,3,4-tetrahydro-quinolin-4-yl]-N-(4-phenoxy-phenyl)-acetamide]", "Ki": "< 10"}
{"smiles": "COc1cccc(C(=O)N2c3ccccc3[C@H](N(C(C)=O)C3CCCCC3)C[C@@H]2C)c1", "note": "(racemic) [Compound B-53, (±)-Cis-N-cyclohexyl-N-[1-(3-methoxy-benzoyl)-2-methyl-1,2,3,4-tetrahydro-quinolin-4-yl]-acetamide]", "Ki": "< 60"}
{"smiles": "CCC(=O)N(c1ccc(Cl)cc1)[C@@H]1C[C@H](C)N(C(=O)c2ccc(F)cc2)c2ccc(OC)cc21", "note": "(racemic) [Compound B-59, (±)-Cis-N-(4-chloro-phenyl)-N-[1-(4-fluoro-benzoyl)-6-methoxy-2-methyl-1,2,3,4-tetrahydro-quinolin-4-yl]-propionamide]", "Ki": "< 10"}
{"smiles": "CCC(=O)N(c1ccc(Cl)cc1)[C@@H]1C[C@H](C)N(C(=O)c2ccc(F)cc2)c2ccc(OCCN(CC)CC)cc21", "note": "(racemic) [Compound B-63, (±)-Cis-N-(4-Chloro-phenyl)-N-[6-(2-diethylamino-ethoxy)-1-(4-fluoro-benzoyl)-2-methyl-1,2,3,4-tetrahydro-quinolin-4-yl]-propionamide]", "Ki": "< 10"}
{"smiles": "CCOC(=O)C(C)(C)Oc1ccc2c(c1)[C@H](N(C(=O)CC)c1ccc(Cl)cc1)C[C@H](C)N2C(=O)c1ccc(F)cc1", "note": "(racemic) [Compound B-64, (±)-Cis-2-[4-[(4-chloro-phenyl)-propionyl-amino]-1-(4-fluoro-benzoyl)-2-methyl-1,2,3,4-tetrahydro-quinolin-6-yloxy]-2-methyl-propionic acid ethyl ester]", "Ki": "< 10"}
{"smiles": "CCC(=O)N(c1ccc(Cl)cc1)[C@@H]1C[C@H](C)N(C(=O)c2ccc(F)cc2)c2ccc(OCC(=O)O)cc21", "note": "(racemic) [Compound B-65, (±)-Cis-[4-[(4-chloro-phenyl)-propionyl-amino]-1-(4-fluoro-benzoyl)-2-methyl-1,2,3,4tetrahydro-quinolin-6-yloxy]-acetic acid]", "Ki": "< 10"}
{"smiles": "CCC(=O)N(c1ccc(Cl)cc1)[C@@H]1C[C@H](C)N(C(=O)c2ccc(F)cc2)c2ccc(OC(C)(C)C(=O)O)cc21", "note": "(racemic) [Compound B-66, (±)-Cis-2-[4-[(4-chloro-phenyl)-propionyl-amino]-1-(4-fluoro-benzoyl)-2-methyl-1,2,3,4-tetrahydro-quinolin-6-yloxy]-2-methyl-propionic acid]", "Ki": "< 10"}
{"smiles": "CCC(=O)N(c1ccc(Cl)cc1)[C@@H]1C[C@H](C)N(C(=O)c2ccc(F)cc2)c2ccc(N3CCOCC3)cc21", "note": "(racemic) [Compound B-70, (±)-Cis-N-(4-chloro-phenyl)-N-[1-(4-fluoro-benzoyl)-2-methyl-6-morpholin-4-yl-1,2,3,4-tetrahydro-quinolin-4-yl]-propionamide]", "Ki": "< 10"}
